Experimental findings from patent US7368578B2, “Five-membered heterocyclic compounds” (Takeda Pharmaceutical Company Limited, priority 2002, dated 2008) are described below.

A word on the melting point: it is the temperature, or range, at which the solid turns liquid. In turn, `CCOC(=O)/C=C/c1cn(CC)nc1OCc1ccc(OCc2nc(-c3ccco3)oc2C)c(OC)c1` [Example 168, ethyl (2E)-3-{1-ethyl-3-[(4-{[2-(2-furyl)-5-methyl-1,3-oxazol-4-yl]methoxy}-3-methoxybenzyl)oxy]-1H-pyrazol-4-yl}-2-propenoate] came in with a melting point of 149 to 150 °C. Then `CCOC(=O)c1cn(C)nc1OCc1ccc(OCc2nc(-c3ccco3)oc2C)c(OC)c1` [Example 171, ethyl 3-[(4-{[2-(2-furyl)-5-methyl-1,3-oxazol-4-yl]methoxy}-3-methoxybenzyl)oxy]-1-methyl-1H-pyrazole-4-carboxylate], with 117 to 118 °C. Turning to `CCOC(=O)c1cn(CC)nc1OCc1ccc(OCc2nc(-c3ccco3)oc2C)c(OC)c1` [Example 172, ethyl 1-ethyl-3-[(4-{[2-(2-furyl)-5-methyl-1,3-oxazol-4-yl]methoxy}-3-methoxybenzyl)oxy]-1H-pyrazole-4-carboxylate], the melting point is 114 to 115 °C. Then `COc1cc(COc2nn(CCO)cc2CO)ccc1OCc1nc(-c2ccco2)oc1C` [Example 176, 2-[3-[(4-{[2-(2-furyl)-5-methyl-1,3-oxazol-4-yl]methoxy}-3-methoxybenzyl)oxy]-4-(hydroxymethyl)-1H-pyrazol-1-yl]ethanol], with 120 to 122 °C; and `COc1cc(COc2nn(C)cc2C=O)ccc1OCc1nc(-c2ccco2)oc1C` [Example 177, 3-[(4-{[2-(2-furyl)-5-methyl-1,3-oxazol-4-yl]methoxy}-3-methoxybenzyl)oxy]-1-methyl-1H-pyrazole-4-carbaldehyde], with 155 to 156 °C; and `CCn1cc(C=O)c(OCc2ccc(OCc3nc(-c4ccco4)oc3C)c(OC)c2)n1` [Example 178, 1-ethyl-3-[(4-{[2-(2-furyl)-5-methyl-1,3-oxazol-4-yl]methoxy}-3-methoxybenzyl)oxy]-1H-pyrazole-4-carbaldehyde], with 103 to 104 °C. The result for `COc1cc(COc2nn(CCO)cc2C=O)ccc1OCc1nc(-c2ccco2)oc1C` [Example 179, 3-[(4-{[2-(2-furyl)-5-methyl-1,3-oxazol-4-yl]methoxy}-3-methoxybenzyl)oxy]-1-(2-hydroxyethyl)-1H-pyrazole-4-carbaldehyde] reads 149 to 150 °C; that for `COc1cc(COc2nn(-c3ccccc3)cc2/C=C/c2cncn2C)ccc1OCc1nc(-c2ccco2)oc1C` [Example 181, 2-(2-furyl)-4-({2-methoxy-4-[({4-[(E)-2-(1-methyl-1H-imidazol-5-yl)ethenyl]-1-phenyl-1H-pyrazol-3-yl}oxy)methyl]phenoxy}methyl)-5-methyl-1,3-oxazole], 144 to 145 °C. `CCn1cncc1/C=C/c1cn(-c2ccccc2)nc1OCc1ccc(OCc2nc(-c3ccco3)oc2C)c(OC)c1` [Example 182, 4-({4-[({4-[(E)-2-(1-ethyl-1H-imidazol-5-yl)ethenyl]-1-phenyl-1H-pyrazol-3-yl}oxy)methyl]-2-methoxyphenoxy}methyl)-2-(2-furyl)-5-methyl-1,3-oxazole] returned a melting point of 130 to 132 °C. Regarding `COc1cc(COc2nn(-c3ccccc3)cc2/C=C/C(N)=S)ccc1OCc1nc(-c2ccco2)oc1C` [Example 184, (2E)-3-{3-[(4-{[2-(2-furyl)-5-methyl-1,3-oxazol-4-yl]methoxy}-3-methoxybenzyl)oxy]-1-phenyl-1H-pyrazol-4-yl}-2-propenethioamide], the melting point fell in the range of 129 to 131 °C. The result for `COc1cc(COc2nn(-c3ccccc3)cc2/C=C/c2nc(C)cs2)ccc1OCc1nc(-c2ccco2)oc1C` [Example 185, 2-(2-furyl)-4-({2-methoxy-4-[({4-[(E)-2-(4-methyl-1,3-thiazol-2-yl)ethenyl]-1-phenyl-1H-pyrazol-3-yl}oxy)methyl]phenoxy}methyl)-5-methyl-1,3-oxazole] reads 130 to 131 °C; that for `CCOC(=O)c1csc(/C=C/c2cn(-c3ccccc3)nc2OCc2ccc(OCc3nc(-c4ccco4)oc3C)c(OC)c2)n1` [Example 186, ethyl 2-((E)-2-{3-[(4-{[2-(2-furyl)-5-methyl-1,3-oxazol-4-yl]methoxy}-3-methoxybenzyl)oxy]-1-phenyl-1H-pyrazol-4-yl}ethenyl)-1,3-thiazole-4-carboxylate], 156 to 157 °C; that for `COc1cc(COc2nn(-c3ccccc3)cc2/C=C/c2nc(C(=O)O)cs2)ccc1OCc1nc(-c2ccco2)oc1C` [Example 187, 2-((E)-2-{3-[(4-{[2-(2-furyl)-5-methyl-1,3-oxazol-4-yl]methoxy}-3-methoxybenzyl)oxy]-1-phenyl-1H-pyrazol-4-yl}ethenyl)-1,3-thiazole-4-carboxylic acid], 170 to 172 °C. Then `COc1cc(COc2nn(-c3ccccc3)cc2/C=C/c2nnc(C)[nH]2)ccc1OCc1nc(-c2ccco2)oc1C` [Example 188, 3-((E)-2-{3-[(4-{[2-(2-furyl)-5-methyl-1,3-oxazol-4-yl]methoxy}-3-methoxybenzyl)oxy]-1-phenyl-1H-pyrazol-4-yl}ethenyl)-5-methyl-4H-1,2,4-triazole], with 165 to 166 °C; and `COc1cc(COc2nn(-c3ccccc3)cc2/C=C/C(=O)NNC(C)=O)ccc1OCc1nc(-c2ccco2)oc1C` [Example 189, (2E)-N′-acetyl-3-{3-[(4-{[2-(2-furyl)-5-methyl-1,3-oxazol-4-yl]methoxy}-3-methoxybenzyl)oxy]-1-phenyl-1H-pyrazol-4-yl}-2-propenohydrazide], with 221 to 222 °C.

`CCc1nc(/C=C\c2cn(-c3ccccc3)nc2OCc2ccc(OCc3csc(N4CCCCC4)n3)c(OC)c2)cs1` [Example 193 (Z form), 1-[4-({4-[({4-[(Z)-2-(2-ethyl-1,3-thiazol-4-yl)ethenyl]-1-phenyl-1H-pyrazol-3-yl}oxy)methyl]-2-methoxyphenoxy}methyl)-1,3-thiazol-2-yl]piperidine] yielded a melting point of 93 to 94 °C. The result for `COc1cc(COc2nn(-c3ccccc3)cc2C=O)ccc1OCc1csc(N2CCCCC2)n1` [Example 196, 3-({3-methoxy-4-[(2-piperidin-1-yl-1,3-thiazol-4-yl)methoxy]benzyl}oxy)-1-phenyl-1H-pyrazole-4-carbaldehyde] reads 123 to 124 °C; that for `COc1cc(COc2nn(-c3ccccc3)cc2C=O)ccc1OCc1csc(N2CCOCC2)n1` [Example 197, 3-({3-methoxy-4-[(2-morpholin-4-yl-1,3-thiazol-4-yl)methoxy]benzyl}oxy)-1-phenyl-1H-pyrazole-4-carbaldehyde], 128 to 129 °C; that for `COc1cc(COc2nn(-c3ccccc3)cc2C=O)ccc1OCc1nc(N2CCCCC2)sc1C` [Example 198, 3-({3-methoxy-4-[(5-methyl-2-piperidin-1-yl-1,3-thiazol-4-yl)methoxy]benzyl}oxy)-1-phenyl-1H-pyrazole-4-carbaldehyde], 180 to 181 °C.

`CCOC(=O)c1cn(Cc2cccnc2)nc1OCc1ccc(OCc2nc(-c3ccco3)oc2C)c(OC)c1` [Example 199, ethyl 3-[(4-{[2-(2-furyl)-5-methyl-1,3-oxazol-4-yl]methoxy}-3-methoxybenzyl)oxy]-1-(pyridin-3-ylmethyl)-1H-pyrazole-4-carboxylate] had a melting point of 131 to 132 °C.

With `COc1cc(COc2nn(Cc3cccnc3)cc2CO)ccc1OCc1nc(-c2ccco2)oc1C` [Example 200, [3-[(4-{[2-(2-furyl)-5-methyl-1,3-oxazol-4-yl]methoxy}-3-methoxybenzyl)oxy]-1-(pyridin-3-ylmethyl)-1H-pyrazol-4-yl]methanol], the melting point lay in the range of 90 to 91 °C. In turn, `COC(=O)c1ccccc1-c1nc(COc2ccc(COc3nn(-c4ccccc4)cc3C=O)cc2OC)c(C)o1` [Example 207, methyl 2-{4-[(4-{[(4-formyl-1-phenyl-1H-pyrazol-3-yl)oxy]methyl}-2-methoxyphenoxy)methyl]-5-methyl-1,3-oxazol-2-yl}benzoate] returned a melting point of 134 to 135 °C. Regarding `COC(=O)c1cccc(-c2nc(COc3ccc(CON4CC(C=O)=CN4c4ccccc4)cc3OC)c(C)o2)c1` [Example 208, methyl 3-{4-[(4-{[(4-formyl-1-phenyl-1H-pyrazol-2-yl)oxy]methyl}-2-methoxyphenoxy)methyl]-5-methyl-1,3-oxazol-2-yl}benzoate], the melting point fell in the range of 164 to 165 °C. The result for `COC(=O)c1ccc(-c2nc(COc3ccc(COc4nn(-c5ccccc5)cc4C=O)cc3OC)c(C)o2)cc1` [Example 209, methyl 4-{4-[(4-{[(4-formyl-1-phenyl-1H-pyrazol-3-yl)oxy]methyl}-2-methoxyphenoxy)methyl]-5-methyl-1,3-oxazol-2-yl}benzoate] reads 190 to 191 °C.

As to `COc1cc(COc2nn(-c3ccccc3)cc2C=O)ccc1OCc1nc(-c2ccccc2)sc1C` [Example 213, 3-({3-methoxy-4-[(5-methyl-2-phenyl-1,3-thiazol-4-yl)methoxy]benzyl}oxy)-1-phenyl-1H-pyrazole-4-carbaldehyde], the melting point is 164 to 165 °C. The result for `COc1cc(COc2nn(-c3ccccc3)cc2C=O)ccc1OCc1coc(-c2ccco2)n1` [Example 218, 3-[(4-{[2-(2-furyl)-1,3-oxazol-4-yl]methoxy}-3-methoxybenzyl)oxy]-1-phenyl-1H-pyrazole-4-carbaldehyde] reads 162 to 163 °C; that for `COc1cc(COc2nn(-c3ccccc3)cc2C=O)ccc1OCc1sc(-c2ccccc2)nc1C` [Example 219, 3-({3-methoxy-4-[(4-methyl-2-phenyl-1,3-thiazol-5-yl)methoxy]benzyl}oxy)-1-phenyl-1H-pyrazole-4-carbaldehyde], 171 to 172 °C. Regarding `COc1cc(COc2nn(-c3ccccc3)cc2C=O)ccc1OCc1cn(-c2ccccn2)nc1C` [Example 220, 3-({3-methoxy-4-[(3-methyl-1-pyridin-2-yl-1H-pyrazol-4-yl)methoxy]benzyl}oxy)-1-phenyl-1H-pyrazole-4-carbaldehyde], the melting point is 179 to 180 °C.

In turn, `COc1cc(COc2nn(-c3ccccc3)cc2C=O)ccc1OCc1nc(-c2ccccc2)cn1C` [Example 221, 3-({3-methoxy-4-[(1-methyl-4-phenyl-1H-imidazol-2-yl)methoxy]benzyl}oxy)-1-phenyl-1H-pyrazole-4-carbaldehyde] yielded a melting point of 126 to 127 °C.
